Results as given in patent US20200121684A1, “MODULATORS OF BTK PROTEOLYSIS AND METHODS OF USE” (Yale University, priority 2018, published 2020).
Counter-ions that a name gives are not always drawn.

Legend:
BTK = target: T1, BTK (Homo sapiens, UniProt Q06187); experiment: BTK degradation in NAMALWA cells, immunoblot; type: cell-based; settings: NAMALWA cells
T1 construct: host or cells: NAMALWA

HER3 = target: T2, HER3 (Homo sapiens, UniProt P21860); experiment: HER3 (ERBB3) degradation, immunoblot; type: cell-based; settings: Table 5
T2 construct: endogenous in cells
T2 sequence (P21860 20-1342): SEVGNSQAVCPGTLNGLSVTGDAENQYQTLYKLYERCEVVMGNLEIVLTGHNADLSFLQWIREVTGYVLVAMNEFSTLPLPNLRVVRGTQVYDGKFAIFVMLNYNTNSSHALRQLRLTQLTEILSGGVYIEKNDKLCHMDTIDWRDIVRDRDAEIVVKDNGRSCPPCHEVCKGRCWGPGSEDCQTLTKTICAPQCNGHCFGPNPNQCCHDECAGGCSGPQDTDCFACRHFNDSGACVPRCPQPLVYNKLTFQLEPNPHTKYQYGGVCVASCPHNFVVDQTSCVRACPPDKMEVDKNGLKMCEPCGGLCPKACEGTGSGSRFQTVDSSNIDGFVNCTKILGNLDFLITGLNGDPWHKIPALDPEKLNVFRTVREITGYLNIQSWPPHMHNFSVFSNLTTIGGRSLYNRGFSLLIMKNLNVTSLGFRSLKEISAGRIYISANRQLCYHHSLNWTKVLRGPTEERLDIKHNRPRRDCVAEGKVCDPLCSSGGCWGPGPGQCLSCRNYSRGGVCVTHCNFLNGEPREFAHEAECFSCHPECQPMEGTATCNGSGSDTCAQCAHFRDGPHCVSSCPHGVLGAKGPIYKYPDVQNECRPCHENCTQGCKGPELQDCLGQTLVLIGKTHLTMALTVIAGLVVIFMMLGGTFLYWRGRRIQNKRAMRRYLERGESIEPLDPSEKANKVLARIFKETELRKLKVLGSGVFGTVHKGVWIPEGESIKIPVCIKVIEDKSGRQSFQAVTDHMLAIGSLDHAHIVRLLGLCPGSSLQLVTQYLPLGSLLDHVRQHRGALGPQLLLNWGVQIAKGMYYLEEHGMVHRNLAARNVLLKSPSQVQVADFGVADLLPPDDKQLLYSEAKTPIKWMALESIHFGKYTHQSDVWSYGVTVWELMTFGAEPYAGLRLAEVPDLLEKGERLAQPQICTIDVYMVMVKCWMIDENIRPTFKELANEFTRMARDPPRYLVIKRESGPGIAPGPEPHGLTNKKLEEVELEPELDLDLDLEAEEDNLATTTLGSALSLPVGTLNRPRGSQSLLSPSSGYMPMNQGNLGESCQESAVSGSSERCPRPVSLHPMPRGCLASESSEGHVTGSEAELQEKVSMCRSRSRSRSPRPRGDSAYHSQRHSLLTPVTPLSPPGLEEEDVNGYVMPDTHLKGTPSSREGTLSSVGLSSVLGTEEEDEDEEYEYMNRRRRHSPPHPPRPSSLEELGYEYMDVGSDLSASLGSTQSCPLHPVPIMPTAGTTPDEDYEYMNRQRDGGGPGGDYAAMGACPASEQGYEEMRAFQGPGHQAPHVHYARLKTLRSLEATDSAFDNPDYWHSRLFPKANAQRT

C481S BTK = C481S BTK (Homo sapiens, UniProt Q06187, C481S); experiment: In vitro kinase inhibition, recombinant BTK, 10-point dose response, 10 μM ATP
C481S BTK, sequence (Q06187 whole entry C481S): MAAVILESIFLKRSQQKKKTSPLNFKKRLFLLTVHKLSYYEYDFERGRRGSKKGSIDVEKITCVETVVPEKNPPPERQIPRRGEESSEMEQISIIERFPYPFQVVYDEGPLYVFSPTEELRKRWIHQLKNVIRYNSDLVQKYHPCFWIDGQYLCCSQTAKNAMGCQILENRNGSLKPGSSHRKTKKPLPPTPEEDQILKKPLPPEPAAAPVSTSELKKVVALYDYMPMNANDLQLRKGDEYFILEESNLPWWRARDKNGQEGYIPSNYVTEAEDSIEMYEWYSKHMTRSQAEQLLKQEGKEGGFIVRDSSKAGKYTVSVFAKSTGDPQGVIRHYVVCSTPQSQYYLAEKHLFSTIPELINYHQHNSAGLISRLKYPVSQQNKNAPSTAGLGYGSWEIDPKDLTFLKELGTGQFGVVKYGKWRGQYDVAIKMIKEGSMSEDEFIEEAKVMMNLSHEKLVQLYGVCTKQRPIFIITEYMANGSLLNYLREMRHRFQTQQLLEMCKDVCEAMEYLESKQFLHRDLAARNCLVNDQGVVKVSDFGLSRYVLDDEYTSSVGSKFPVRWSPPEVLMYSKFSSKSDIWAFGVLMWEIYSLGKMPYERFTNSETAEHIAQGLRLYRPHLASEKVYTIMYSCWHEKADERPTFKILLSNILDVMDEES

T1 sequence (Q06187 whole entry): as the sequence (Q06187 whole entry C481S) above, with S481C counted along it

| Compound | BTK degradation at 1.0 μM (BTK) | HER3 Degradation (HER3) | inhibition potency against C481S mutant BTK relative to wild-type (C481S BTK) | DC50 (BTK; Table 5) [nM] |
| --- | --- | --- | --- | --- |
| Nc1ncnc2c1c(-c1ccc(Oc3ccccc3)cc1)nn2C1CCN(CCCCCCOCCOCC(=O)Nc2cccc3c2C(=O)N(C2CCC(=O)NC2=O)C3=O)CC1 (stereo not shown) [Compound 104, 2-(2-(6-(4-(4-amino-3-(4-phenoxyphenyl)-1H-pyrazolo[3,4-d]pyrimidin-1-yl)piperidin-1-yl)hexyloxy)ethoxy)-N-(2-(2,6-dioxopiperidin-3-yl)-1,3-dioxoisoindolin-4-yl)acetamide] | nearly complete degradation of BTK | No |  |  |
| Nc1ncnc2c1c(-c1ccc(Oc3ccccc3)cc1)nn2C1CCN(CCCCOCCCCOCC(=O)Nc2cccc3c2C(=O)N(C2CCC(=O)NC2=O)C3=O)CC1 (stereo not shown) [Compound 106, 2-[4-[4-[4-[4-amino-3-(4-phenoxyphenyl)pyrazolo[3,4-d]pyrimidin-1-yl]-1-piperidyl]butoxy]butoxy]-N-[2-(2,6-dioxo-3-piperidyl)-1,3-dioxo-isoindolin-4-yl]acetamide] | nearly complete degradation of BTK | No |  |  |
| Nc1ncnc2c1c(-c1ccc(Oc3ccccc3)cc1)nn2C1CCNCC1 [compound 1, 3-(4-phenoxyphenyl)-1-(piperidin-4-yl)-1H-pyrazolo[3,4-d]pyrimidin-4-amine hydrochloride, reference compound] |  |  | retained inhibition potency |  |
| (2S,4R)-1-((S)-25-(4-(4-amino-3-(4-phenoxyphenyl)-1H-pyrazolo[3,4-d]pyrimidin-1-yl)piperidin-1-yl)-2,2-dimethyl-5-oxo-7,10,13,16,19-pentaoxa-4-azapentacosanecarbonyl)-4-hydroxy-N-(4-(4-methylthiazol-5-yl)benzyl)pyrrolidine-2-carboxamide [Compound 118] |  | No |  | 231 |
